{"source": "patent US12714711B2", "about": "“Salts of neuroceuticals and uses thereof” (priority 2020, dated 2026)", "key": {"MK-801 treated mice": {"tested_on": "MK-801 treated mice", "experiment": "Open field test, MK-801 induced hyper-locomotion;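 on all read-outs here: adult male C57BL/6J mice, locomotion counted as total photobeam breaks over 60 minutes in an open field photobeam activity system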", "settings": "for locomotor activity in MK-801 treated mice: MK-801 0.2 mg/kg i.p.; for Recovery rate (%): MK801-treated mice", "experimental": "All mice were tested with open field task.\nIn this study, the mice were placed in a Plexiglas cage (37.5 cm×21.5 cm×18 cm) under 50-65 lux light intensity. Their spontaneous locomotor activities were measured for 60 minutes using the Photobeam Activity System (PAS)-open field (San Diego Instruments, San Diego, Calif., USA). The total number of photo beam breaks of each mouse was measured as an index of locomotor activity.\nThe schizophrenia-like behavior, MK801-induced hyperactivity, were tested by open field task.\nAll mice were tested in an open field task.\nThe schizophrenia-like behavior, NMDA-hypofunction-induced hyperactivity, were tested by open field task.\nThe amount of paliperidone administered to Groups 3 and 4 was equal. The schizophrenia-like behavior, MK801-induced hyperactivity, were tested by open field task.\nThe amount of paliperidone administered to Groups 3 and 4 was equal. The schizophrenia-like behavior, NMDA-hypofunction-induced hyperactivity, were tested by open field task."}, "[1]": {"settings": "for blood glucose levels during glucose tolerance test compared to vehicle: mice", "experimental": "For the acute study, mice were randomly assigned into one of the five groups listed below. • Group 1: Vehicle control • Group 2: NA (3.77 mg/kg) • Group 3: Clz (10 mg/kg) • Group 4: Clz (10 mg/kg)+NA (3.77 mg/kg) • Group 5: Clz:NA 1:1 salt (13.77 mg/kg)\nFor the repeated dose study, two cohorts of mice were used. In cohort 1, mice were randomly assigned into one of the three groups listed below. • Group 1: Vehicle control • Group 2: Clz (10 mg/kg) • Group 3: Clz:NA 1:1 salt (13.77 mg/kg)\nIn cohort 2, the mice were randomly assigned into one of the three groups listed below. • Group 1: Vehicle control • Group 2: Clz (3 mg/kg) • Group 3: Clz:NA 1:1 salt (4.13 mg/kg)\nTo assess glucose tolerance, mice were fasted overnight on day 18 (for cohort 1) and on day 35 (for cohort 2), and their blood glucose response to i.p. administration of glucose (2 g/kg) was determined. Blood glucose levels were assessed in the whole blood collected from the tail vein, 60 min after drug administration Immediately following this glucose measurement, all mice were subjected to a glucose tolerance test by receiving an intraperitoneal challenge injection of 2 g/kg of glucose, and blood glucose levels were measured at 0, 30, 60 and 120 minutes.\nMice used in this study were randomly assigned into one of the six following groups: • Group 1: Vehicle control • Group 2: Clz (10 mg/kg) • Group 3: Clz (10 mg/kg)+enriched TA (22.5 mg/kg) • Group 4: Clz (10 mg/kg)+enriched TA (11.3 mg/kg) • Group 5: Clz:enriched TA 2:1 salt (32.5 mg/kg) • Group 6: Clz:enriched TA 4:1 salt (21.3 mg/kg)\nOne day before the glucose tolerance test, the mice fasted overnight and the blood glucose levels were measured in whole blood collected from the tail vein. Glucose levels were measured using a portable glucose meter (Contour® Plus, Bayer AG, Leverkusen, Germany) 60 min after they were acutely administered with the treatments indicated above Immediately following this glucose measurement, all mice were subjected to a glucose tolerance test by receiving an intraperitoneal challenge injection of 2 g/kg of glucose. Blood glucose levels were measured at 30, 60 and 120 minutes.\nTwo cohorts of mice were used in this study. […]"}, "[2]": {"experiment": "Carr Index (USP 1174), flowability", "type": "physicochemical"}, "[3]": {"experiment": "Water solubility at 25° C.", "settings": "25° C."}, "[4]": {"settings": "fasting glucose", "procedure": "The testing compounds were administered to mice either through intraperitoneal (i.p.) injection or oral gavage before analyzing blood glucose levels.\nFor the acute study, two cohorts of mice were used.\nFor repeated-dose study, mice were randomly assigned into five groups as listed below. • Group 1: Vehicle control • Group 2: Clz (3 mg/kg) • Group 3: Clz:NA 1:1 salt (4.13 mg/kg) • Group 4: Clz (10 mg/kg) • Group 5: Clz:NA 1:1 salt (13.77 mg/kg)\nThe night before blood glucose levels were measured, the mice were fasted. Blood glucose levels were measured with a portable glucose meter (Contour® Plus, Bayer AG, Leverkusen, Germany) After waiting for 60 min, the treatments indicated above were administered. FIG. 75 illustrates the experimental design of this study.\nTwo cohorts of mice were used in this study. In cohort 1, mice were randomly assigned into the five groups listed below: • Group 1: Vehicle control • Group 2: NA (3.94 mg/kg) • Group 3: Olz (10 mg/kg) • Group 4: Olz (10 mg/kg)+NA (3.94 mg/kg) • Group 5: Olz:NA 1:1 salt (13.94 mg/kg)\nDosing occurred 60 min prior to measuring blood glucose levels.\nIn cohort 2, mice were randomly assigned into the five groups listed below: • Group 1: Vehicle control • Group 2: Olz (5 mg/kg) • Group 3: Olz:NA 1:1 salt (6.97 mg/kg) • Group 4: Olz (10 mg/kg) • Group 5: Olz:NA 1:1 salt (13.94 mg/kg)\nThe night before the glucose tolerance test, the mice fasted. Blood glucose levels were measured in whole blood that was collected from the mouse's tail vein. Glucose levels were measured with a portable glucose meter (Contour® Plus, Bayer AG, Leverkusen, Germany), with the measurement occurring 60 min after the mice were dosed with the treatments indicated above Immediately following the glucose measurement, all mice were subjected to a glucose tolerance test, which involved an intraperitoneal challenge injection of 1 g/kg of glucose, followed by measuring blood glucose levels at 0, 30, 60 and 120 minutes."}, "[5]": {"experiment": "Stress study at 40° C./75% relative humidity in a closed system, HPLC analysis", "settings": "40° C./75% RH, 30 days, in the presence of free benzoic acid"}}, "note": "Entries after “also recorded” stand apart in the source; their conditions may differ. Read-outs that look alike come from different tables or passages of the source."}
{"smiles": "O=C(O)c1cccnc1.OCCOCCN1CCN(C2=Nc3ccccc3Sc3ccccc32)CC1", "note": "[quetiapine:nicotinic acid 1:1 salt]", "values": [{"measurement": "Open-field test effect (formula [formula] not readable)", "setting": "MK-801 treated mice; acute oral, quetiapine 10 mg/kg", "value": 53.1, "unit": "%"}, {"measurement": "locomotor activity in MK-801 treated mice", "setting": "MK-801 treated mice; oral quetiapine 10 mg/kg or nicotinic acid salt […]", "value": "significant decrease in locomotion activity, compared with quetiapine group"}, {"measurement": "Blood glucose level compared to vehicle after 120 min", "setting": "[1]; GTT, dosage of quetiapine 20 mg/kg", "value": 1.00}, {"measurement": "Carr Index", "setting": "[2]", "value": 20, "unit": "%"}, {"measurement": "water solubility", "setting": "[3]", "value": 262, "unit": "mg/mL"}]}
{"smiles": "Cc1cc2c(s1)Nc1ccccc1N=C2N1CCN(C)CC1.O=C(O)c1cccnc1", "note": "[olanzapine:nicotinic acid 1:1 salt]", "values": [{"measurement": "Recovery rate (%)", "setting": "MK-801 treated mice; dosage of olanzapine 0.1 mg/kg", "value": 47.9, "unit": "%"}, {"measurement": "locomotor activity in MK-801 treated mice", "setting": "MK-801 treated mice; oral olanzapine 0.1 mg/kg or nicotinic acid salt 0.14 mg/kg", "value": "significant decrease in MK-801-induced hyper-locomotion"}, {"measurement": "blood glucose levels during glucose tolerance test compared to vehicle", "setting": "[1]; single i.p. dose, olanzapine 5 mg/kg or salt 6.97 mg/kg, glucose 1 g/kg i.p.", "value": "significantly higher than vehicle control group at 120 min after glucose challenge"}, {"measurement": "blood glucose levels during glucose tolerance test compared to vehicle", "setting": "[1]; single i.p. dose, olanzapine 10 mg/kg or salt 13.94 mg/kg, glucose 1 g/kg i.p.", "value": "significantly higher than vehicle control group at 120 min after glucose challenge and remained lower than the olanzapine (10 mg/kg) group at all time points"}, {"measurement": "blood glucose levels during glucose tolerance test compared to vehicle", "setting": "[1]; single oral dose, olanzapine 10 mg/kg, NA 3.94 mg/kg, mixture, or salt 13.94 mg/kg", "value": "high glucose levels only after 60 mins, before returning to normal glucose levels 120 min post glucose challenge"}, {"measurement": "Rate of reduce olanzapine-induced hyperglycemia (%)", "setting": "[4]; acute i.p., dosage of olanzapine 5 mg/kg", "value": 57.6, "unit": "%"}, {"measurement": "Rate of reduce olanzapine-induced hyperglycemia (%)", "setting": "[4]; acute i.p., dosage of olanzapine 10 mg/kg", "value": 38.4, "unit": "%"}, {"measurement": "Rate of reduce olanzapine-induced hyperglycemia (%)", "setting": "[4]; acute oral, dosage of olanzapine 10 mg/kg", "value": 50.5, "unit": "%"}]}
{"smiles": "CN1CCN(C2=Nc3cc(Cl)ccc3Nc3ccccc32)CC1.O=C(O)c1ccccc1", "note": "[clozapine:benzoic acid 1:1 salt]", "values": [{"measurement": "Recovery rate (%)", "setting": "MK-801 treated mice; dosage of clozapine 1 mg/kg (benzoic acid salt study)", "value": 85.8, "unit": "%"}, {"measurement": "Degradation during the stress study (HPLC before vs after)", "setting": "[5]", "value": "did not degrade; also recorded: more stable than clozapine"}, {"measurement": "water solubility", "setting": "[3]", "value": 1.58, "unit": "mg/mL"}]}
